One data set has as its system HCMV (Davis). Nature of the data set: Anti-HCMV screening test: inhibition of the cytopathogenic effect in HELF cell cultures. The data set is classed as cell-based, human cytomegalovirus. The conditions noted are these: for IC50: HCMV (Davis)-infected HELF cells, 6 days, concentration causing 50% inhibition of the CPE; for SI: selectivity index, defined by footnote 3 (drawing 26), HELF CIC50 versus HCMV IC50. The method, then:
(§1) The anti-HCMV effect was determined in a screening test system in 96-well microtitre plates, making use of human embryonic lung fibroblasts (HELF) cell cultures. The influence of the substances on the spread of the cytopathogenic effect was compared with that of the reference substance ganciclovir (Cymevene® sodium), a clinically approved anti-HCMV chemotherapeutic agent.
(§2) The substances dissolved in DMSO (dimethyl sulphoxide) (at 50 mM concentration) are investigated on microtitre plates (96-well) at final concentrations of 1,000-0.00048 μM (micromolar) in double determinations (4 substances/plate). The conditions are such that both toxic and cytostatic effects of the substances are recorded. Once the appropriate substance dilutions (1:2) have been made on the microtitre plate, a suspension of 50-100 HCMV-infected HELF cells and 3×10^4 non-infected HELF cells in Eagle's MEM (minimal essential medium) containing 10% foetal calf serum is added to each well and the plates are then incubated at 37° C. in a CO2 incubator for a period of 6 days. […] After staining with neutral red and fixing with formalin/methanol, the plates are evaluated with the aid of a projection microscope (plaque viewer).
For orientation: Damage to the host cells serves as the signal in cytopathic effect assays.

The subject of data set [1] is human embryonic lung fibroblasts (HELF). Nature of the data set: Anti-cellular effect on HELF cells in the anti-HCMV screening test. The method, then: as §1, §2

Where two headings read alike, the source gives them in different places.

One may read the IC50 as the concentration that gives 50% inhibition. Higher therefore signals a need for much substance. In the case of `Cc1ccc(S(=O)(=O)NC(=N)NCCC[C@H](NC(=O)OCc2ccccc2)C(=O)N[C@H](C(=O)NC(C=O)Cc2ccccc2)C(C)(C)C)cc1` (stereo partly drawn) [Example 50, (2R,S)-2-[Nα-(Benzyloxycarbonyl)-N^G -(4-methyl-phenylsulphonyl)-S-arginyl-S-(tert-butyl)glycinyl]amino-3-phenyl-propan-1-al], in the data set on HCMV (Davis), half-maximal inhibition (IC50) was put at 4 nM and the SI worked out at 700. Moreover, the “CIC50 (HELF)” value in data set [1] came to 2.8 µM.
In the data set with HCMV (Davis) (Human betaherpesvirus 5, 144 h), `Nc1nc(O)c2ncn(COC(CO)CO)c2n1` [Cymevene.Na, ganciclovir] displayed a half-inhibitory concentration (IC50) of 2000 to 4000 nM. In addition, the SI in the data set with HCMV (Davis) is 32-64. For the same compound, the “CIC50 (HELF)” value in data set [1] (HELF cells, 6 days incubation, highest concentration which does not show any obvious anticellular effect) amounted to 125 µM.

These data come from US5646121A, “Pseudopeptides with antiviral activity” (Bayer Aktiengesellschaft, priority 1993, dated 1997).
